Source: US9637738B2, “Methods and agents to increase therapeutic dystrophin expression in muscle” (Reveragen Biopharma, Inc., priority 2013, dated 2017)
Entries after “also recorded” stand apart in the source; their conditions may differ.

Assays:
[1] = tested on: miR-146a; assay: qRT-PCR of miR-146a in gastrocnemius of drug-treated mdx23 mice; format: in vivo, mouse; settings: 5 mg/kg prednisolone or 15 mg/kg VBP-15, p<0.01
Method: (§1) FIG. 8—Treatment with anti-inflammatories modulates dystrophin-targeting microRNAs. (a) VBP15 and prednisolone reduces dystrophin-targeting microRNA levels; miR-146a, miR-146b and miR-223 levels in the gastrocnemius of wild-type mice and vehicle, prednisolone, or […] mdx23 mice were assessed via qPCR; results were normalized to wild-type levels. […] All statistical analyses were performed in Prism Graph Pad 5.0, One-Way ANOVA with Bonferroni post-test (*p<0.05; **p<0.01).
(§2) 20 mg frozen muscle was homogenized in TriZol reagent (Invitrogen), followed by RNA extraction. microRNAs were quantified with 7900HT Fast Real-Time PCR system using mouse-specific TaqMan microRNA assays with U6 snRNA as a control. Results were calculated as above using the 2(−ΔΔC(T)) method (Schmittgen, 2001).
(§3) Mdx23 (C57BL/10ScSn-Dmd/J) mice (The Jackson laboratories) were dosed with 5 mg/kg prednisolone or 15 mg/kg […] as previously reported (Heier et al, 2013).
(§4) Exon skipping therapies in DMD will likely be used in combination with either current glucocorticoid standards of care, or next-generation steroid derivatives moving towards clinical use (Heier et al 2012). Because these drugs affect transcriptional regulation and/or inflammatory miRNA signaling, we tested what their effects on levels of dystrophin-regulating miRNAs might be.

[2] = tested on: miR-146b; assay: qRT-PCR of miR-146b in gastrocnemius of drug-treated mdx23 mice; format: in vivo, mouse; settings: 5 mg/kg prednisolone or 15 mg/kg VBP-15
Method: as §1, §2, §3, §4

[3] = tested on: miR-223; assay: qRT-PCR of miR-223 in gastrocnemius of drug-treated mdx23 mice; format: in vivo, mouse; settings: 5 mg/kg prednisolone or 15 mg/kg VBP-15
Method: as §1, §2, §3, §4

[4] = tested on: miR-382; assay: qRT-PCR of miR-382 in gastrocnemius of drug-treated mdx23 mice; format: in vivo, mouse; settings: 5 mg/kg prednisolone or 15 mg/kg VBP-15, p<0.05 for prednisone
Method: as §1, §2, §3, §4

[5] = tested on: miR-320a; assay: qRT-PCR of miR-320a in gastrocnemius of drug-treated mdx23 mice; format: in vivo, mouse; settings: 5 mg/kg prednisolone or 15 mg/kg VBP-15, p=0.22 for prednisone
Method: as §1, §2, §3, §4

[6] = tested on: dystrophin protein; assay: Systemic delivery of PMO to mdx23 mice, dystrophin rescue by SILAM mass spectrometry and immunoblot; format: in vivo, mouse; settings: single 800 mg/kg intravenous injection, 1 month post-injection, SILAM mass spectrometry
Method: FIG. 7—Dystrophin-regulating microRNAs levels promote observed variability of dystrophin protein production in PMO-treated mdx mice. (a) Dystrophin levels were analyzed via mass spec and miRNA levels were assessed in the diaphragm, TA and Gastroc. […] All statistical analyses were performed in Prism Graph Pad 5.0, One-Way ANOVA with Bonferroni post-test (*p<0.05; **p<0.01; ***p<0.001). (b) The tricep, TA and gastroc in 3 PMO-treated mice were chosen for analysis. Dystrophin levels were analyzed via mass spec and microRNA levels were analyzed via qPCR. For analysis, Each miRNA's values were grouped by muscle, mean and SD were calculated. The deviation from the appropriate mean was calculated for each individual miRNA value. These deviations were assigned a score of low, mid or high, defined by the following rule: those falling within 0.5 SD of the mean were assigned a “mid” score, those greater than 0.5 SD of the mean were assigned a “high score”, and those less than 0.5 SD of the mean were assigned a “low” score. Mean % dystrophin levels were then compared using an independent t-test. […]
We tested whether variable levels of dystrophin-regulating microRNAs in muscle […] of dystrophin rescue by exon skipping. […] From one mouse, adjacent cryosections of the tibialis anterior (TA), gastrocnemius, and diaphragm muscles were analyzed for dystrophin protein content by SILAM mass spectrometry (Brown et al. 2013) and immunoblotting, and for dystrophin-regulating microRNA content by TaqMan (real time PCR) assays (FIG. 7a).

[7] = tested on: human dystrophin 3′UTR; assay: Dys 3′UTR luciferase reporter assay in C2C12 myoblasts co-transfected with microRNA mimics; format: cell-based, mouse; settings: C2C12 myoblasts co-transfected with 200 ng Dys 3′UTR reporter and 50 nM microRNA mimic, Renilla luciferase normalized to internal control

C[C@@H]1CC2C3CCC4=CC(=O)C=C[C@]4(C)C3=CC[C@]2(C)[C@@]1(O)C(=O)CO (stereo partly drawn) [VBP-15, (10S,13S,16R,17R)-17-hydroxy-17-(2-hydroxyacetyl)-10,13,16-trimethyl-6,7,8,10,12,13,14,15,16,17-decahydro-3H-cyclopenta[a]phenanthren-3-one]
miR-146a levels over untreated mice [1]: significantly reduced | miR-146b levels over untreated mice [2]: trend of decreases | miR-223 levels over untreated mice [3]: trend of decreases

C[C@]12C=CC(=O)C=C1CC[C@@H]1[C@@H]2[C@@H](O)C[C@@]2(C)[C@H]1CC[C@]2(O)C(=O)CO [prednisone, prednisolone]
miR-146a levels over untreated mice [1]: significantly reduced | miR-146b levels over untreated mice [2]: trend of decreases | miR-223 levels over untreated mice [3]: trend of decreases | miR-382 levels, increase in treated mice [4]: increased | miR-320a levels, increase in treated mice [5]: increased

exon 23-targeting morpholino: PMO (Gene Tools): 5′-GGCCAAACCTCGGCTTACCTGAAAT-3′ (SEQ ID NO:33) (all phosphorodiamidate morpholino (PMO); listed as Mus musculus)
dystrophin rescue in diaphragm [6]: 5 % wild-type levels | dystrophin rescue in gastrocnemius [6]: 5 % wild-type levels | dystrophin rescue in tibialis anterior (TA) [6]: 40 % wild-type levels

miR-146a: microRNA mimic; hsa-miR-146a 3′-UUGGGUACCUUAAGUCAAGAGU-5′ (SEQ ID NO: 1) (listed as RNA, chemistry not given here; listed 3' to 5'; listed as Homo sapiens)
luciferase protein expression from Dys 3′UTR reporter [7]: significantly inhibited

miR-146b-5p: microRNA mimic; hsa-miR-146b-5p 3′-UCGGAUACCUUAAGUCAAGAGU-5′ (SEQ ID NO: 3) (listed as RNA, chemistry not given here; listed 3' to 5'; listed as Homo sapiens)
luciferase protein expression from Dys 3′UTR reporter [7]: significantly inhibited | luciferase protein expression from Dys 3′UTR reporter ([7]; listed as miR-146b): most potent downregulation; also recorded: strong inhibition

miR-223: microRNA mimic; hsa-miR-223 3′-ACCCCAUAAACUGUUUGACUGU-5′ (SEQ ID NO: 5) (listed as RNA, chemistry not given here; listed 3' to 5'; listed as Homo sapiens)
luciferase protein expression from Dys 3′UTR reporter [7]: significantly inhibited

miR-320a: microRNA mimic; hsa-miR-320a 3′-AGCGGGAGAGUUGGGUCGAAAA-5′ (SEQ ID NO: 7) (listed as RNA, chemistry not given here; listed 3' to 5'; listed as Homo sapiens)
luciferase protein expression from Dys 3′UTR reporter [7]: significantly inhibited

miR-374a: microRNA mimic; hsa-miR-374a 3′-GUGAAUAGUCCAACAUAAUAUU-5′ (SEQ ID NO: 9) (listed as RNA, chemistry not given here; listed 3' to 5'; listed as Homo sapiens)
luciferase protein expression from Dys 3′UTR reporter [7]: significantly inhibited; also recorded: most potent downregulation; also recorded: strong inhibition

miR-382: microRNA mimic; hsa-miR-382 3′-GCUUAGGUGGUGCUUGUUGAAG-5′ (SEQ ID NO: 14) (listed as RNA, chemistry not given here; listed 3' to 5'; listed as Homo sapiens)
luciferase protein expression from Dys 3′UTR reporter [7]: significantly inhibited
